In article PMC11551755, “Structure-based discovery of first inhibitors targeting the helicase activity of human PIF1” (Nucleic Acids Research, 2024):
Read-outs that look alike come from different tables or passages of the source.

Target: T1, hPIF1HD (Homo sapiens, UniProt Q9H611)
T1 construct: the hPIF1HD construct starts at residue Gln 206 and ends at Leu 620; hexa-histidine tag (N, cleaved yes); made in house; host or cells: ArcticExpress BL21(DE3) E. coli (Agilent Technologies)
T1 sequence (Q9H611 206-620): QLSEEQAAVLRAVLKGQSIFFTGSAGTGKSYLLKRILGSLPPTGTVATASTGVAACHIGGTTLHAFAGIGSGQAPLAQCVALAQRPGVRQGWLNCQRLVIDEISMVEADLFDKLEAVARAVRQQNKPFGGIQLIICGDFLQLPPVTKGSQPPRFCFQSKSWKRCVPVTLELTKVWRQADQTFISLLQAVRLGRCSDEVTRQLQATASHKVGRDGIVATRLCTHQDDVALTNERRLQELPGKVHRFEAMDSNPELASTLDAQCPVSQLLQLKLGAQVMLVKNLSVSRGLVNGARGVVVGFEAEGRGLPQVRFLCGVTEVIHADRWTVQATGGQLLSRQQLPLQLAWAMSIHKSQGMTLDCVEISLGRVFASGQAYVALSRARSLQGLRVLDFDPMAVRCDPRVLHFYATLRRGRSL
Assay: ssDNA d(T)55 binding assay (EMSA), wild-type hPIF1HD
Conditions: 5 mM AMP-PNP, read-out: IC50 for inhibition of hPIF1HD ssDNA binding, WT
Description: DNA binding of hPIF1HD was assayed using a ^32P-5′ end-labelled oligo d(T)55 substrate (0.25 nM), under the same buffer conditions described for helicase assays, but with AMP-PNP instead of ATP. Reaction products were resolved on 5% poly-acrylamide gels (29:1 acrylamide:bis-acrylamide) using 0.25× TBE running buffer ([19],[28]). Gels were processed and reaction products quantified by phosphorimaging and IC50 values determined as described above.
In the hPIF1HD/AMP-PNP/1 structure, the compound 1 binding site is largely between domains 2A and 2B and is absent in the modelled hPIF1HD-ssDNA complex (Figure 2), due to the large relative movement of domain 2B required for ssDNA binding, with or without bound nucleotide ([19],[34],[35],[47]). […] To test this, we assayed binding to a radiolabelled oligo d(T)55 substrate under helicase reaction conditions, with AMP-PNP instead of ATP, in the presence of the same SMIs selected for helicase IC50 analysis (Table 1). hPIF1HD was used rather than FLhPIF1 to eliminate the non-specific DNA binding activity of the N-terminal domain ([27],[29]), and complexes were resolved by gel electrophoresis (electrophoretic mobility shift assay, EMSA). […] With an increasing concentration of compound 1C (or other analogues of 1) or a derivative, progressive inhibition of ssDNA binding was observed, allowing determination of IC50 values for most compounds tested. It was not possible to obtain data for compounds 3, 7, 8 and 9 due to retention of substrate in the gel wells, possibly due to low solubility of the compounds (Supplementary Figure S10).
Figure 4. Inhibition of hPIF1HD ssDNA binding by compound 1 and derivatives. Binding reactions were assembled under helicase reaction conditions but with 0.25 nM radiolabelled oligo d(T)55, 2 nM hPIF1HD, 5 mM AMP-PNP and 0.0078–2 mM SMI. Products were resolved by EMSA for quantification and IC50 determination (n = 3 repeats). Bound ssDNA was calculated as the sum of the major and minor species, interpreted as one or two bound hPIF1HD molecules respectively. See also Supplementary Figure S10. IC50 values are given along with those determined for hPIF1HD variants V258A and V258L (see Supplementary Figure S12). TEXT PRINTED IN THE PICTURE: 1C: IC50 (μM): N.D. | 1E: IC50 (μM): N.D. | 2: IC50 (μM): WT: 224 ± 86; IC50 (μM): V258A: 103 ± 31; IC50 (μM): V258L: 304 ± 88 | 4: IC50 (μM): N.D. | 5: IC50 (μM): WT: 198 ± 54; IC50 (μM): V258A: 79.2 ± 27; IC50 (μM): V258L: 414 ± 45 | 6: IC50 (μM): WT: 722 ± 194; IC50 (μM): V258A: 295 ± 116; IC50 (μM): V258L: 1010 ± 282 | 10: IC50 (μM): WT: 224 ± 59; IC50 (μM): V258A: 152 ± 42; IC50 (μM): V258L: 378 ± 99 | 11: IC50 (μM): WT: 284 ± 110; IC50 (μM): V258A: 151 ± 51; IC50 (μM): V258L: 551 ± 215

[1] = 0.25 nM d(T)55, 2 nM hPIF1HD, 0.0078–2 mM SMI, n = 3

In the case of `CC(=O)c1ccc(-c2csc(N)n2)cc1` [Compound 2], the IC50 (as printed in Supplementary Figure 12 legend, 2 nM hPIF1HD) is reported as 224 ± 86 µM.

`N#Cc1ccc(-c2csc(N)n2)cc1` [Compound 5] was tested, and the IC50 [1] was 198 ± 54 µM.

`Nc1nc(-c2ccc(C(=O)c3ccccc3)cc2)cs1` [Compound 6] gave an IC50 [1] of 722 ± 194 µM.

With `CC(=O)Nc1ccc(-c2csc(N)n2)cc1-c1ccc(C)cc1` [Compound 10] the IC50 [1] was 224 ± 59 µM.

In the case of `CC(=O)Nc1ccc(-c2csc(N)n2)cc1C1=CCNCC1` [Compound 11], the IC50 [1] is reported as 284 ± 110 µM.
